Laboratory results: US9981975B2, “Pyrrolotriazine compounds as tam inhibitors” (Incyte Corporation, priority 2016, dated 2018)

Tests used:
Format in all cases: biochemical
phosphor-Axl = phosphor-Axl (Homo sapiens (Human), UniProt P30530); assay: TAM Enzymatic Assay (HTRF), Axl; conditions: recombinant autophosphorylated Axl, 60 min, room temperature
c-Mer = c-Mer (Homo sapiens (Human), UniProt Q12866); assay: TAM Enzymatic Assay (HTRF), Mer; conditions: 60 min, room temperature
Outline: (§1)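 Reactions ran 60 min at room temperature, protected from light, started by substrate addition to enzyme plus DMSO compound, in pH 7.5 HEPES buffer with 10 mM MgCl2, 1 mM EGTA, 0.01% NP-40, 2 mM DTT.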

Tyro3 = Tyro3 (Homo sapiens (Human), UniProt Q06418); assay: TAM Enzymatic Assay (HTRF), Tyro3; conditions: Tyro3, 60 min, room temperature
Outline: as §1

c-Mer, sequence (Q12866 21-999): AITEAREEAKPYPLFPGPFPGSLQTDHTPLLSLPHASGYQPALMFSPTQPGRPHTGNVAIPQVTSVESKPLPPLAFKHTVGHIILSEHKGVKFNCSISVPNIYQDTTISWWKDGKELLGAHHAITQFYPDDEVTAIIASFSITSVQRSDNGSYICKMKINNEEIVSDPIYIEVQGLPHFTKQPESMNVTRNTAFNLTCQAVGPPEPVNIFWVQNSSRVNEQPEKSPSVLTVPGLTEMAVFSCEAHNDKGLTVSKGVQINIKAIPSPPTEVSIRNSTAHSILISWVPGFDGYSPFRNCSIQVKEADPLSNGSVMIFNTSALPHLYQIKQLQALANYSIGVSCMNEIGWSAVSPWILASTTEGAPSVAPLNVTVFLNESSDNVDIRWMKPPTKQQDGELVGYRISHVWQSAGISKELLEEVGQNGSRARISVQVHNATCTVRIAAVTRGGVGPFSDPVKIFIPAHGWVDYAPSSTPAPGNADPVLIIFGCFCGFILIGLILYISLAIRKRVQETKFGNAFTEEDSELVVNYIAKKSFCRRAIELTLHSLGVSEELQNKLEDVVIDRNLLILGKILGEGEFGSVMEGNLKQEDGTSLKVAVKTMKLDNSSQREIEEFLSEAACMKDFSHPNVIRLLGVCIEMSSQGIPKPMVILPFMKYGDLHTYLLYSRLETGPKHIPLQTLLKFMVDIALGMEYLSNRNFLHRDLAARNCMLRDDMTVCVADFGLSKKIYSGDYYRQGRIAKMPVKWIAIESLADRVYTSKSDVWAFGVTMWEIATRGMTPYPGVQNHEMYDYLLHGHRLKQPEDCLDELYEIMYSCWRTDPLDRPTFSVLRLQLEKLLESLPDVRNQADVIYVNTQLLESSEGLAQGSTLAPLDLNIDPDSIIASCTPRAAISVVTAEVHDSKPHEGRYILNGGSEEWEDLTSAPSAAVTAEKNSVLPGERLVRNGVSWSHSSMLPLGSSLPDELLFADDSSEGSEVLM
Tyro3, sequence (Q06418 41-890): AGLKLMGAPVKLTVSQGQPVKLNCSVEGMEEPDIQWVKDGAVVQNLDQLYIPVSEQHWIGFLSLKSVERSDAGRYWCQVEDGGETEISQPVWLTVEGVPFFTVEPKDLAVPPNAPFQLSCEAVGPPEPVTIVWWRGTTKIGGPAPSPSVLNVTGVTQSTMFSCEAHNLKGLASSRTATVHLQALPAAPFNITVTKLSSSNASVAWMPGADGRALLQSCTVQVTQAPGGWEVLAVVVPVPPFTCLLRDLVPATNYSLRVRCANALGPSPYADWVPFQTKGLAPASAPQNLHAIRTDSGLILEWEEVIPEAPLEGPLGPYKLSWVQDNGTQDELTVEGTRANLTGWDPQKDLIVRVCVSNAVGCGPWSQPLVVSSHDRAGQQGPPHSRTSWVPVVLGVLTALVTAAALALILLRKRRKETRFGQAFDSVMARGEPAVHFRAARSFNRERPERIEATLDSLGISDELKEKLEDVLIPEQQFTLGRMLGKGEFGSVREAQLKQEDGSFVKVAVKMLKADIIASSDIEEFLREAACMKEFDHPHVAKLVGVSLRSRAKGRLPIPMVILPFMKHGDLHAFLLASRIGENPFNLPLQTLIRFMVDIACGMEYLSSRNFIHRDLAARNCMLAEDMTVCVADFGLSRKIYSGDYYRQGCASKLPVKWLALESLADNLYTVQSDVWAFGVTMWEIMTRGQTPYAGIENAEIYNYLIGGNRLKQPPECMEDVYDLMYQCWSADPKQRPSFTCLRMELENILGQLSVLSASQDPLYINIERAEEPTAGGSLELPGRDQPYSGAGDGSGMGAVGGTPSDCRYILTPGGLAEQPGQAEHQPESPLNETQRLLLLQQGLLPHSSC
phosphor-Axl, sequence (P30530 26-894): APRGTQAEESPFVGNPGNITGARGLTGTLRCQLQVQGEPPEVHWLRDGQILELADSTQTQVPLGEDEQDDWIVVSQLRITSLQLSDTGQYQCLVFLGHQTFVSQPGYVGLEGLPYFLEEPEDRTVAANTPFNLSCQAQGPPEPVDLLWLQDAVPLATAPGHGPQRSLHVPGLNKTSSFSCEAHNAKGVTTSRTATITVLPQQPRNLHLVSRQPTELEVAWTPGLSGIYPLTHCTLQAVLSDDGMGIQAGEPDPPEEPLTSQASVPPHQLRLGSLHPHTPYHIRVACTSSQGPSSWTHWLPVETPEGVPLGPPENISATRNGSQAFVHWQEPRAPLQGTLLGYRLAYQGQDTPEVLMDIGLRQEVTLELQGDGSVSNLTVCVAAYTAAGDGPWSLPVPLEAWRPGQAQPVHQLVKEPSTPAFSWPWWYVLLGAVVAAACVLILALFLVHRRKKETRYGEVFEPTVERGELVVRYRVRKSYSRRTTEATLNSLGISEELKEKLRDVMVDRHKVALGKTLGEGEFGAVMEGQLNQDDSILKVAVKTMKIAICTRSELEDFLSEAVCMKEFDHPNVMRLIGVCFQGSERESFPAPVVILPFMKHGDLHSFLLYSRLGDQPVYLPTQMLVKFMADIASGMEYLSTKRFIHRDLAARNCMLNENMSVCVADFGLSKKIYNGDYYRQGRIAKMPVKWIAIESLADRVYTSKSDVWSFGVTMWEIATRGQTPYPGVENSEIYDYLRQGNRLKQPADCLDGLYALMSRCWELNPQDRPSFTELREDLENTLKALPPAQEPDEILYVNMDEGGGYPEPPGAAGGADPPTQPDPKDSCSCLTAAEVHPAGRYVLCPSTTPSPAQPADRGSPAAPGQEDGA

IC50 (phosphor-Axl) [nM]	IC50 (c-Mer) [nM]	IC50 (Tyro3) [nM]	Structure (SMILES)
≤ 5	≤ 5	> 100	CC(C)C(=O)N1CCC(c2cc(-c3ccc(NC(=O)c4cc(C#C[C@H](C)O)cn(-c5ccccc5)c4=O)cc3)c3c(N)ncnn23)CC1 [Example 120, (S)—N-(4-(4-Amino-7-(1-isobutyrylpiperidin-4-yl)pyrrolo[2,1-f][1,2,4]triazin-5-yl)phenyl)-5-(3-hydroxybut-1-yn-1-yl)-2-oxo-1-phenyl-1,2-dihydropyridine-3-carboxamide]
≤ 5	≤ 5	> 100	Cc1cc(C(=O)Nc2ccc(-c3cc(C4CCN(C(=O)C(C)C)CC4)n4ncnc(N)c34)cc2)c(=O)n(-c2cncc(F)c2)c1C [Example 121, N-(4-(4-Amino-7-(1-isobutyrylpiperidin-4-yl)pyrrolo[2,1-f][1,2,4]triazin-5-yl)phenyl)-5′-fluoro-5,6-dimethyl-2-oxo-2H-[1,3′-bipyridine]-3-carboxamide]
≤ 5	≤ 5	> 100	Cc1c(CC#N)cc(C(=O)Nc2ccc(-c3cc(C4CCN(C(=O)C(C)C)CC4)n4ncnc(N)c34)cc2)c(=O)n1-c1ccccn1 [Example 122, N-(4-(4-Amino-7-(1-isobutyrylpiperidin-4-yl)pyrrolo[1,2-f][1,2,4]triazin-5-yl)phenyl)-5-(cyanomethyl)-6-methyl-2-oxo-1-(pyridin-2-yl)-1,2-dihydropyridine-3-carboxamide]
≤ 5	≤ 5	> 100	Cc1c(-c2ccn(C)n2)cc(C(=O)Nc2ccc(-c3cc(C4CCN(C(=O)C(C)C)CC4)n4ncnc(N)c34)cc2)c(=O)n1-c1ccccn1 [Example 125, N-(4-(4-Amino-7-(1-isobutyrylpiperidin-4-yl)pyrrolo[2,1-f][1,2,4]triazin-5-yl)phenyl)-6-methyl-5-(1-methyl-1H-pyrazol-3-yl)-2-oxo-2H-[1,2′-bipyridine]-3-carboxamide]
≤ 5	≤ 5	> 100	Cc1c(-c2ncco2)cc(C(=O)Nc2ccc(-c3cc(C4CCN(C(=O)C(C)C)CC4)n4ncnc(N)c34)cc2)c(=O)n1-c1ccccn1 [Example 126, N-(4-(4-Amino-7-(1-isobutyrylpiperidin-4-yl)pyrrolo[2,1-f][1,2,4]triazin-5-yl)phenyl)-6-methyl-5-(oxazol-2-yl)-2-oxo-2H-[1,2′-bipyridine]-3-carboxamide]
≤ 5	≤ 5	> 100	Cc1c(C(F)F)cc(C(=O)Nc2ccc(-c3cc(C4CCN(C(=O)C(C)C)CC4)n4ncnc(N)c34)cc2)c(=O)n1-c1ccccn1 [Example 127, N-(4-(4-Amino-7-(1-isobutyrylpiperidin-4-yl)pyrrolo[2,1-f][1,2,4]triazin-5-yl)phenyl)-5-(difluoromethyl)-6-methyl-2-oxo-2H-[1,2′-bipyridine]-3-carboxamide]
≤ 5	≤ 5	> 100	Cc1c(Br)cc(C(=O)Nc2ccc(-c3cc(C4CCN(C(=O)C(C)C)CC4)n4ncnc(N)c34)cc2)c(=O)n1-c1cccnc1 [Example 130, N-(4-(4-Amino-7-(1-isobutyrylpiperidin-4-yl)pyrrolo[2,1-f][1,2,4]triazin-5-yl)phenyl)-5-bromo-6-methyl-2-oxo-2H-[1,3′-bipyridine]-3-carboxamide]
≤ 5	≤ 5	> 100	Cc1c(Cl)cc(C(=O)Nc2ccc(-c3cc(C4CCN(C(=O)C(C)C)CC4)n4ncnc(N)c34)cc2)c(=O)n1-c1cccnc1 [Example 131, N-(4-(4-amino-7-(1-isobutyrylpiperidin-4-yl)pyrrolo[2,1-f][1,2,4]triazin-5-yl)phenyl)-5-chloro-6-methyl-2-oxo-2H-[1,3′-bipyridine]-3-carboxamide]
≤ 5	≤ 5	> 100	Cc1cc(C(=O)Nc2ccc(-c3cc(C4CCN(C(=O)C(C)C)CC4)n4ncnc(N)c34)cc2)c(=O)n(-c2cccnc2)c1C [Example 132, N-(4-(4-Amino-7-(1-isobutyrylpiperidin-4-yl)pyrrolo[2,1-f][1,2,4]triazin-5-yl)phenyl)-5,6-dimethyl-2-oxo-2H-[1,3′-bipyridine]-3-carboxamide]
≤ 5	≤ 5	> 100	Cc1c(-c2ccn(C)n2)cc(C(=O)Nc2ccc(-c3cc(C4CCN(C(=O)C(C)C)CC4)n4ncnc(N)c34)cc2)c(=O)n1-c1cccnc1 [Example 135, N-(4-(4-Amino-7-(1-isobutyrylpiperidin-4-yl)pyrrolo[2,1-f][1,2,4]triazin-5-yl)phenyl)-6-methyl-5-(1-methyl-1H-pyrazol-3-yl)-2-oxo-2H-[1,3′-bipyridine]-3-carboxamide]
≤ 5	≤ 5	> 100	COCc1c(Br)cc(C(=O)Nc2ccc(-c3cc(C4CCN(C(=O)C(C)C)CC4)n4ncnc(N)c34)cc2)c(=O)n1-c1ccccc1 [Example 136, N-(4-(4-Amino-7-(1-isobutyrylpiperidin-4-yl)pyrrolo[2,1-f][1,2,4]triazin-5-yl)phenyl)-5-bromo-6-(methoxymethyl)-2-oxo-1-phenyl-1,2-dihydropyridine-3-carboxamide]
≤ 5	≤ 5	> 100	CC(C)C(=O)N1CCC(c2cc(-c3ccc(NC(=O)c4cn(C5CC5)c(=O)n(-c5ccccc5)c4=O)cc3)c3c(N)ncnn23)CC1 [Example 139, N-(4-(4-Amino-7-(1-isobutyrylpiperidin-4-yl)pyrrolo[2,1-f][1,2,4]triazin-5-yl)phenyl)-1-cyclopropyl-2,4-dioxo-3-phenyl-1,2,3,4-tetrahydropyrimidine-5-carboxamide]
≤ 5	≤ 5	> 100	Cc1c(-c2ccccn2)c(=O)c(C(=O)Nc2ccc(-c3cc(C4CCN(C(=O)C(C)C)CC4)n4ncnc(N)c34)cc2)cn1C1CC1 [Example 141, N-(4-(4-Amino-7-(1-isobutyrylpiperidin-4-yl)pyrrolo[2,1-f][1,2,4]triazin-5-yl)phenyl)-1′-cyclopropyl-2′-methyl-4′-oxo-1′,4′-dihydro-[2,3′-bipyridine]-5′-carboxamide]
≤ 5	≤ 5	> 100	Cc1c(-c2cccnc2)c(=O)c(C(=O)Nc2ccc(-c3cc(C4CCN(C(=O)C(C)C)CC4)n4ncnc(N)c34)cc2)cn1C1CC1 [Example 147, N-(4-(4-Amino-7-(1-isobutyrylpiperidin-4-yl)pyrrolo[1,2-f][1,2,4]triazin-5-yl)phenyl)-1-cyclopropyl-6-methyl-4-oxo-5-(pyridin-3-yl)-1,4-dihydropyridine-3-carboxamide]
